Measured values taken from the CheMixHub ionic liquid set.

Assay: xn = mol fraction of the nth substance listed

CCCC[P+](CCCC)(CCCC)CCCC.F[B-](F)(F)F + C1CCOC1 + C1COCO1
298.15 K, 100 kPa
Conditions	viscosity [mPa·s]
x1 = 0.0007279, x2 = 0.2549	0.563
x1 = 0.0007522, x2 = 0.5064	0.531
x1 = 0.0007834, x2 = 0.7544	0.499
x1 = 0.001095, x2 = 0.2548	0.569
x1 = 0.001131, x2 = 0.5062	0.537
x1 = 0.001182, x2 = 0.7541	0.505
x1 = 0.001455, x2 = 0.2547	0.575
x1 = 0.001511, x2 = 0.506	0.542
x1 = 0.001573, x2 = 0.7538	0.51
x1 = 0.001821, x2 = 0.2546	0.581
x1 = 0.001889, x2 = 0.5058	0.548
x1 = 0.001971, x2 = 0.7535	0.516
x1 = 0.00218, x2 = 0.2545	0.588
x1 = 0.002268, x2 = 0.5056	0.554
x1 = 0.002368, x2 = 0.7532	0.522
x1 = 0.002547, x2 = 0.2544	0.595
x1 = 0.002646, x2 = 0.5054	0.561
x1 = 0.002758, x2 = 0.7529	0.528

CC[n+]1ccn(C)c1.N#C[S-] + CCO
101 kPa
Conditions	viscosity [mPa·s]
283.15 K, x1 = 0.8045	22.86
283.15 K, x1 = 0.8971	29.28
293.15 K, x1 = 0.8971	20.53
303.15 K, x1 = 0.0504	1.31
303.15 K, x1 = 0.2012	2.31
303.15 K, x1 = 0.951	17.12
313.15 K, x1 = 0.0504	1.1
313.15 K, x1 = 0.6016	6.04
313.15 K, x1 = 0.7018	7.47
313.15 K, x1 = 0.8971	11.5
313.15 K, x1 = 1	14.3
323.15 K, x1 = 0.7018	6.02
323.15 K, x1 = 0.951	10.17

CC[n+]1ccn(C)c1.N#C[S-] + CO
100 kPa
Conditions	electrical conductivity [S/m]	viscosity [mPa·s]
298.15 K, x1 = 0.5972	2.07	12.8
303.15 K, x1 = 0.3859	2.58	7
303.15 K, x1 = 1	–	20
308.15 K, x1 = 0.0988	2.57	1.9
308.15 K, x1 = 0.5006	2.65	7.9
308.15 K, x1 = 1	2.27	18
323.15 K, x1 = 0.1966	–	2.2
323.15 K, x1 = 0.3005	3.7	3.2
323.15 K, x1 = 0.804	3.13	9.1
323.15 K, x1 = 0.8997	3.08	10.4
323.15 K, x1 = 1	3.05	12

C[N+](C)(C)CCO.O=S(=O)([N-]S(=O)(=O)C(F)(F)F)C(F)(F)F + CC(O)CO
101 kPa
Conditions	viscosity [mPa·s]
313.15 K, x2 = 0	56.4
313.15 K, x2 = 0.4786	28.6
318.15 K, x2 = 0.4786	23.6
328.15 K, x2 = 0.5867	15.4
333.15 K, x2 = 0	28.6
338.15 K, x2 = 0	24.6
343.15 K, x2 = 0.2189	14.68
343.15 K, x2 = 0.3834	12.15
343.15 K, x2 = 0.8744	6.61
348.15 K, x2 = 0	19.1

CCCCCCCCCCCCCC[P+](CCCCCC)(CCCCCC)CCCCCC.O=[N+]([O-])c1cn[n-]c1 + CCCCCC[n+]1ccn(C)c1.O=S(=O)([N-]S(=O)(=O)C(F)(F)F)C(F)(F)F
100 kPa
Conditions	viscosity [mPa·s]
278.15 K, x2 = 0.7	830
293.15 K, x2 = 0.203	790

CCCCCCCCn1cc[n+](C)c1.[Cl-] + CO
101 kPa
Conditions	viscosity [mPa·s]
298.15 K, x1 = 0.0197	0.729
298.15 K, x2 = 0.3525	530
298.15 K, x2 = 0.4395	237
298.15 K, x2 = 0.5589	64.1
298.15 K, x2 = 0.8713	2.39
298.15 K, x2 = 0.8813	2.205
313.15 K, x2 = 0.5589	34.97
313.15 K, x2 = 0.8231	3.58
328.15 K, x2 = 0.4395	55.2
328.15 K, x2 = 0.8231	2.496

CN(C)c1ccccc1 + CCCC[n+]1ccn(C)c1.O=S(=O)([O-])C(F)(F)F
100 kPa
Conditions	viscosity [mPa·s]
288.15 K, x1 = 0.2998	54
288.15 K, x1 = 0.397	39.3
288.15 K, x1 = 0.6997	10.05
288.15 K, x1 = 1	1.536
293.15 K, x1 = 1	1.415
298.15 K, x1 = 0.397	25.9
298.15 K, x1 = 0.8945	2.63
308.15 K, x1 = 0.2	30.7
313.15 K, x1 = 0.2	25.2
313.15 K, x1 = 0.6997	5.03
318.15 K, x1 = 0.1	27.1
318.15 K, x1 = 0.6997	4.54
318.15 K, x1 = 0.8945	1.828
323.15 K, x1 = 1	0.92
328.15 K, x1 = 0.1	19.6
328.15 K, x1 = 0.8945	1.569
333.15 K, x1 = 0.1	16.91
333.15 K, x1 = 0.5045	6.71
333.15 K, x1 = 0.8945	1.463
